Measured values taken from paper PMC9269118, “Chemical Constituents of the Flowers of Pueraria lobata and Their Cytotoxic Properties” (Plants, 2022).

Key:
[1] = system: immortalized human ovarian surface epithelial cell line IOSE80PC; experiment: MTT cell viability assay, IOSE80PC; assay type: cell-based; conditions: 48 h incubation, IOSE80PC cells
Text: (§1) To identify anti-tumor constituents in Pueraria Flos, we examined the effects of the 25 isolates on the cell viability of the human ovarian cancer A2780 cell line using the MTT assay. […] To further evaluate the effect of the compounds on the cell viability of non-malignant ovarian epithelial cells, we explored the cytotoxicity of the eight compounds (8, 10, 11, 12, 14, 16, 17, and 21) against the immortalized human ovarian surface epithelial cell line IOSE80PC.
(§2) Human ovarian endometrioid adenocarcinoma cell line A2780 and immortalized ovarian surface epithelial cell line IOSE80PC were provided by Dr. Ie-Ming Shih (Johns Hopkins School of Medicine, Baltimore, MD, USA) and Dr. N. Auersperg (University of British Columbia, Vancouver, British Columbia, Canada), respectively. The cells were cultured in Roswell Park Memorial Institute (RPMI) 1640 supplemented with 5% fetal bovine serum (FBS), penicillin (100 U/mL), and streptomycin sulfate (100 μg/mL) in a 5% CO2 and 95% air humidified atmosphere at 37 °C. RPMI 1640, FBS, streptomycin sulfate, and penicillin were procured from Life Technologies Inc. (Grand Island, NY, USA). The cells were seeded at a density of 1.0 × 10^5 cells/mL in a 96-well plate containing 50 μL of RPMI medium in each well and incubated for 24 h. Various concentrations of compounds dissolved in dimethyl sulfoxide (DMSO) were mixed with RPMI 1640 medium and added into cells in each well. […] Following 48 h incubation, 50 μL of MTT (Molecular Probes Inc., Eugene, OR, USA) solution was added into each well to achieve a final concentration of 0.5 mg/mL and then incubated for an additional 4 h. The medium was discarded, and the formazan blue that formed in the cells was dissolved in 50 μL of DMSO. The optical density was measured at 540 nm by microplate spectrophotometer (SpectraMax; Molecular Devices, Sunnyvale, CA, USA). […] IC50 is defined as the concentration that reduces cell number by 50% compared to control cultures.

[2] = system: human ovarian cancer cell line A2780; experiment: MTT cell viability assay, A2780; assay type: cell-based; conditions: 48 h incubation, A2780 cells
Text: as §1, §2

[3] = system: ovarian cancer cell line A2780; set-up: method as in PMID 18974065, PMID 19447105; conditions: by suppressing the expression of Id1 and focal adhesion kinase; cited from earlier work
[4] = system: ovarian cancer cell line OVCAR3; set-up: method as in PMID 19005980; conditions: cited from earlier work
VEGF expression = system: VEGF expression; set-up: method as in PMID 19005980; conditions: cited from earlier work
[5] = system: breast cancer cell line MCF-7; set-up: method as in PMID 27784319, PMID 15787436; conditions: cited from earlier work
MCF-7 = system: MCF-7; set-up: method as in PMID 19026551; conditions: cited from earlier work
[6] = system: murine lymphocytic leukemia (P-388); set-up: method as in doi:10.1016/0031-9422(93)85369-3, PMID 24018191; conditions: cited from earlier work
LNCaP = system: LNCaP; set-up: method as in PMID 19026551; conditions: cited from earlier work
[7] = system: colon adenocarcinoma (SW-480); set-up: method as in doi:10.1016/0031-9422(93)85369-3, PMID 24018191; conditions: cited from earlier work
Lu1 = system: Lu1; set-up: method as in PMID 19026551; conditions: cited from earlier work
(HEK293) = system: (HEK293); set-up: method as in doi:10.1016/0031-9422(93)85369-3, PMID 24018191; conditions: cited from earlier work

SMILES	IC50 ([2]; Homo sapiens, A2780, 48 h) [µM]	IC50 ([1]; Homo sapiens, IOSE-80PC) [µM]	also measured
N.N.[Cl][Pt][Cl] [Cisplatin, cisplatin, reference compound]			IC50 [1]: 12.8 ± 0.55 µM; IC50 [2]: 10.7 ± 0.81 µM
O=C1C[C@@](O)(c2ccc(O)cc2)Oc2cc(O)cc(O[C@@H]3O[C@H](CO)[C@@H](O)[C@H](O)[C@H]3O)c21 [Compound 6, 2-hydroxy-naringenin-5-O-β-D-glucopyranoside]	> 100		
O=c1cc(-c2ccc(O)cc2)oc2cc(O)cc(O)c12 [Compound 8, apigenin]		> 100	proliferation and migration of A2780 [3]: inhibits the proliferation and migration
C[C@@H]1O[C@@H](OC[C@H]2O[C@@H](Oc3c(-c4ccc(O)cc4)oc4cc(O)cc(O)c4c3=O)[C@H](O)[C@@H](O)[C@@H]2O)[C@H](O)[C@H](O)[C@H]1O [Compound 9, nicotiflorin]	> 100		
O=c1c(-c2ccc(O)cc2)coc2cc(O)cc(O)c12 [Compound 10, genistein]		> 100	cell proliferation in OVCAR3 [4]: inhibits cell proliferation; VEGF expression in OVCAR3 (VEGF expression): downregulates VEGF expression
COc1c(O)cc2occ(-c3ccc(O)cc3)c(=O)c2c1O [Compound 11, tectorigenin]		> 100	
COc1c(O)cc2occ(-c3ccc(O)c(O)c3)c(=O)c2c1O [Compound 12, irilin D]	< 100	> 100	anticancer activity in MCF-7 [5]: anticancer activity; IC50 [2]: 57.5 ± 3.08 µM
COc1c(O[C@@H]2O[C@H](CO)[C@@H](O)[C@H](O)[C@H]2O)cc2occ(-c3ccc(O)cc3)c(=O)c2c1O [Compound 13, tectoridin]	> 100		
COc1ccc(-c2coc3cc(OC4OC(CO)C(O)C(O)C4O)c(OC)c(O)c3c2=O)cc1 [Compound 14, irisolidone-7-O-β-D-glucopyranoside]	< 100	> 100	IC50 [2]: 71.2 ± 11.3 µM
COc1c(OC2OC(COC3OCC(O)C(O)C3O)C(O)C(O)C2O)cc2occ(-c3ccc(O)cc3)c(=O)c2c1O [Compound 15, tectorigenin-7-O-β-D-xylopyranosyl-(1→6)-O-β-D-glucopyronoside]	> 100		
COc1cc2c(=O)c(-c3ccc(O)cc3)coc2cc1O [Compound 16, glycitein]		> 100	
COc1ccc(-c2coc3cc(O)c(OC)cc3c2=O)cc1 [Compound 17, afromosin]		> 100	anticancer activity in MCF-7 [5]: anticancer activity
COc1cc([C@@H]2Oc3ccc(-c4cc(=O)c5c(O)cc(O)cc5o4)cc3O[C@H]2CO)ccc1O [Compound 21, (-)-hydnocarpin]		65.8 ± 1.6	cytotoxicity against MCF-7 (MCF-7): no cytotoxicity; antiproliferative activity against P-388 [6]: considerable antiproliferative activities; cytotoxicity against LNCaP (LNCaP): no cytotoxicity; antiproliferative activity against SW-480 [7]: considerable antiproliferative activities; cytotoxicity against Lu1 (Lu1): no cytotoxicity; antiproliferative activity against HEK293 ((HEK293)): considerable antiproliferative activities
C[C@@H]1O[C@@H](OC[C@H]2O[C@@H](OCc3ccccc3)[C@H](O)[C@@H](O)[C@@H]2O)[C@H](O)[C@H](O)[C@H]1O [Compound 22, hydrageifolin I]	> 100		
O=c1c(O)c(-c2ccc(O)c(O)c2)oc2cc(O)cc(O)c12 [Quercetin, quercetin, reference compound]	19.4 ± 2.92	> 100	
